Here are results for 1 compound from patent publication US12729404B2, “Method and kit for testing drug hypersensitivity reactions caused by sulfonamide derivative-based antiepileptic drug and use of the kit” (CHANG GUNG MEMORIAL HOSPITAL, LINKOU, priority 2020, dated 2026).

Structures are written as SMILES.

Settings in all cases: in vivo
In data set [1] the target is T1, HLA-B*13:01 (Homo sapiens, UniProt P01889, A65T/A93T/A95T/D138N/D201E/D98Y/E176V/E204Q/E69M/E70A/G107R/K202T/L105A/L119I/N104T/N87E/Q94N/R106L/R155S/R169L/R180L/S101N/S121R/S35A/S48T/T118I/V127L/V36M/Y140L/Y91S).
Data set [2] deals with T1, HLA-B*13:01. This is another data set of the same source.
The subject of data set [3] is HLA-B*51:01 or B*51:02.

Consider `NS(=O)(=O)Cc1noc2ccccc12` [zonisamide], for which, in data set [1], the “DHR (%) carrying the allele” value was 100%, the “DHR N (allele carriers / patients)” value is listed as 3/3, the Sensitivity is recorded as 100.00% and the Specificity is 88.52%. Also, in data set [2], the “Cases N (allele carriers / patients)” value was 5/7 and the OR worked out at 19.3. Besides, in data set [3], the “Cases N (allele carriers / patients)” value is recorded as 4/7 and the OR came out at 8.3.
